Measurements taken from US20030171386A1, “Small molecules for the treatment of abnormal cell growth” (Pfizer Inc., priority 2001, published 2003).

Assays:
[1] = molecular target: T1, chimeric EGFR/erbB2 kinase (Homo sapiens, UniProt P04626); assay: erbB2 receptor autophosphorylation, in vitro cell assay in transfected 3T3 cells; assay type: cell-based; settings: intact 3T3 cells transfected with chimeric EGFR/erbB2 kinase; EGF-stimulated phosphotyrosine; read-out: Potency (IC50) for the erbB2 receptor
T1 construct: EGFR extracellular/erbB2 intracellular; expressed in transfected cells; host or cells: 3T3 cells; the other entry of the earlier key: EGFR (P00533, Epidermal growth factor receptor)
T1 sequence (P04626 720-1255 limits assumed, change not shown): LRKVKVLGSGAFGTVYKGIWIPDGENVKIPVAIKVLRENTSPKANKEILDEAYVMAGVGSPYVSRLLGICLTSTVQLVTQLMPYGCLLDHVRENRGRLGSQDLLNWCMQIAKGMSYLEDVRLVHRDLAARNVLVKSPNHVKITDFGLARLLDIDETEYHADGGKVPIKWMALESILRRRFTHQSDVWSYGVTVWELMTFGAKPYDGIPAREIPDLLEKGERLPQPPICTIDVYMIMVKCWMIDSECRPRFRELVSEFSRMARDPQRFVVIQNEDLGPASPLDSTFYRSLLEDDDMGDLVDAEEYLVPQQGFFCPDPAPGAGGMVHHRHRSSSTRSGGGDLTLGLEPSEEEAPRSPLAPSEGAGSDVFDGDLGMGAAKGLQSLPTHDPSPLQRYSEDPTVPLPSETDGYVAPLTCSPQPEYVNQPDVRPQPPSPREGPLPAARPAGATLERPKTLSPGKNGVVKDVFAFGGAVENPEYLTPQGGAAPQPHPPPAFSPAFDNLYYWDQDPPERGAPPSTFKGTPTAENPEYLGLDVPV
Description: The in vitro activity of small molecule compounds as erbB kinase inhibitors in intact cells may be determined by the following procedure. Cells, for example 3T3 cells transfected with human EGFR (Cohen et al. J. Virology 67:5303, 1993) or with chimeric EGFR/erbB2 kinase (EGFR extracellular/erbB2 intracellular, Fazioli et al. Mol. Cell. Biol. 11: 2040, 1991) are plated in 96-well plates at 12,000 cells per well in 100 μl medium (Dulbecco's […] (DMEM) with 5% fetal calf serum, 1% pen/streptomycin, 1% L-glutamine) and incubated at 37° C., 5% CO2 Test compounds are solubilized in DMSO at a concentration of 10 mM, and tested at final concentrations of 0, 0.3 μM, 1 μM, […], 0.1 μM and 10 μM in the medium. The cells are incubated at 37° C. for 2 h. EGF (40 ng/ml final) is added to each well and cells incubate at room temperature for 15 min followed by aspiration of medium, then 100 μl/well cold fixative (50% ethanol/50% acetone containing 200 micromolar sodium orthovanadate) is added. The plate is incubated for 30 min at room temperature followed by washing with wash buffer (0.5% Tween 20 in phosphate buffered saline). Blocking buffer (3% bovine serum albumin, 0.05% Tween 20, 200 μM sodium orthovanadate in phosphate buffered saline, 100 μl/well) is added followed by incubation for 2 hours at room temperature followed by two washes with wash buffer. PY54 monoclonal anti-phosphotyrosine antibody directly conjugated to horseradish peroxidase (50 μl/well, 1 μg/ml in blocking buffer) or blocked conjugate (1 μg/ml with 1 mM phosphotyrosine in blocking buffer, to check specificity) is added and the plates incubated for 2 hours at room temperature. The plate wells are then washed 4 times with wash buffer. The colorimetric signal is developed by addition of TMB Microwell Peroxidase Substrate (Kirkegaard and Perry, Gaithersburg, Md.), 50 μl per well, and stopped by the addition of 0.09 M sulfuric acid, 50 μl per well. Absorbance at 450 nm represents phosphotyrosine content of proteins. The increase in signal in EGF-treated cells over control (non-EGF treated) represents the activity of the EGFR or EGFR/chimera respectively. The potency of an inhibitor is determined by measurement of the concentration of compound needed to inhibit the increase in phosphotyrosine by 50% (IC50) in each cell line. The selectivity of the compounds for erbB2 vs. EGFR is determined by comparison of the IC50 for the EGFR transfectant vs. that for the erbB2/EGFR chimera transfectant. Thus, for example, a compound with an IC50 of 100 nM for the EGFR transfectant and 10 nM for the erbB2/EGFR chimera transfectant is considered 10-fold selective for erbB2 kinase.
(§1) The IC50 values for the inhibition of erbB1 receptor autophosphorylation and erbB2 receptor autophophorylation were determined using the in vitro cell assays described above.

human EGFR = molecular target: T2, human EGFR (Homo sapiens, UniProt P00533); assay: erbB1 receptor autophosphorylation, in vitro cell assay in transfected 3T3 cells, used for the erbB2 versus erbB1 selectivity ratio; assay type: cell-based; settings: comparison of IC50 for EGFR transfectant vs. erbB2/EGFR chimera transfectant
T2 construct: expressed in transfected cells; host or cells: 3T3 cells
T2 sequence (P00533 25-1210): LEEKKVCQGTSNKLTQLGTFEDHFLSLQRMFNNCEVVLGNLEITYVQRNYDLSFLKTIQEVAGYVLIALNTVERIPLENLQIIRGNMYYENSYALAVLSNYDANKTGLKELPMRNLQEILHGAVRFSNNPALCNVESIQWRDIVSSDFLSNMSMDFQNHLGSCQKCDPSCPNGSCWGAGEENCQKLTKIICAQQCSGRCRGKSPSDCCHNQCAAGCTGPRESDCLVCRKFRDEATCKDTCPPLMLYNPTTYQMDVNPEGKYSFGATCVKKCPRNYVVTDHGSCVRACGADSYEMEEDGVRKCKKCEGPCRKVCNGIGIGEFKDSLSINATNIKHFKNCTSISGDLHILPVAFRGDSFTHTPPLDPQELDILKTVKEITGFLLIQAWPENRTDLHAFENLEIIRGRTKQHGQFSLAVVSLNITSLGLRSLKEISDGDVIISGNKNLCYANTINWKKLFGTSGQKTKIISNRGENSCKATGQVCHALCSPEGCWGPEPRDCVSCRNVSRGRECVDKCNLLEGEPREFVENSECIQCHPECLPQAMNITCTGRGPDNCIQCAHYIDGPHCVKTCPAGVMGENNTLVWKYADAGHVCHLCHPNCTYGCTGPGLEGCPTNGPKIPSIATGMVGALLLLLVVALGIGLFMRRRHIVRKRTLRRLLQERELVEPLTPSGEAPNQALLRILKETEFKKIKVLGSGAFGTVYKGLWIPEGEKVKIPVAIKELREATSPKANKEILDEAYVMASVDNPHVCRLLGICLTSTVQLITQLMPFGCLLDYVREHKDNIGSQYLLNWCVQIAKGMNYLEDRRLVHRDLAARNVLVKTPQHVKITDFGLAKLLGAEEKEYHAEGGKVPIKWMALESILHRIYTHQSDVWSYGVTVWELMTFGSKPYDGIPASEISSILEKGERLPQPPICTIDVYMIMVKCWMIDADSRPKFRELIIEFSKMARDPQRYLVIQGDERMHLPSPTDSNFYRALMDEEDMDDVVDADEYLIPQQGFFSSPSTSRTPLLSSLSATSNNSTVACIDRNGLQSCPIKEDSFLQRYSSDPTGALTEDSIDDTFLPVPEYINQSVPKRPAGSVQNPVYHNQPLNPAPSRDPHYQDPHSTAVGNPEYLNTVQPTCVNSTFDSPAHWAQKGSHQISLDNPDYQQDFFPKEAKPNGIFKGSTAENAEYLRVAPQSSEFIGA
Description: The in vitro activity of small molecule compounds as erbB kinase inhibitors in intact cells may be determined by the following procedure. […] The cells are incubated at 37° C. for 2 h. EGF (40 ng/ml final) is added to each well and cells incubate at room temperature for 15 min followed by aspiration of medium, then 100 μl/well cold fixative (50% ethanol/50% acetone containing 200 micromolar sodium orthovanadate) is added. The plate is incubated for 30 min at room temperature followed by washing with wash buffer (0.5% Tween 20 in phosphate buffered saline). Blocking buffer (3% bovine serum albumin, 0.05% Tween 20, 200 μM sodium orthovanadate in phosphate buffered saline, 100 μl/well) is added followed by incubation for 2 hours at room temperature followed by two washes with wash buffer. PY54 monoclonal anti-phosphotyrosine antibody directly conjugated to horseradish peroxidase (50 μl/well, 1 μg/ml in blocking buffer) or blocked conjugate (1 μg/ml with 1 mM phosphotyrosine in blocking buffer, to check specificity) is added and the plates incubated for 2 hours at room temperature. The plate wells are then washed 4 times with wash buffer. The colorimetric signal is developed by addition of TMB Microwell Peroxidase Substrate (Kirkegaard and Perry, Gaithersburg, Md.), 50 μl per well, and stopped by the addition of 0.09 M sulfuric acid, 50 μl per well. […] The increase in signal in EGF-treated cells over control (non-EGF treated) represents the activity of the EGFR or EGFR/chimera respectively. […] The selectivity of the compounds for erbB2 vs. EGFR is determined by comparison of the IC50 for the EGFR transfectant vs. that for the erbB2/EGFR chimera transfectant.
as §1

[2] = clinical trials, patients; cited from earlier work
[3] = system: transplanted human mammary carcinoma, which expresses epidermal growth factor receptor tyrosine kinase (EGFR); settings: EGFR-expressing human mammary carcinoma in athymic nude mice; cited from earlier work
[4] = system: another carcinoma, which does not express the EGF receptor; settings: carcinoma not expressing the EGF receptor; cited from earlier work

| IC50 [1] [nM] | erbB2/erbB1 ratio (selectivity) (human EGFR) | SMILES | dermal toxicity (rash) [2] | tumor growth [3] | tumor growth [4] |
| --- | --- | --- | --- | --- | --- |
| 21 to 50 | 112 | CCNC(=O)NCC#Cc1ccc2ncnc(Nc3ccc(Oc4cccnc4)c(C)c3)c2c1 [Example 10, 1-Ethyl-3-(3-{4-[3-methyl-4-(pyridin-3-yloxy)-phenylamino]-quinazolin-6-yl}-prop-2-ynyl)-urea] | – | – | – |
| 21 to 50 | 1133 | COC(=O)NC/C=C/c1ccc2ncnc(Nc3ccc(Oc4cccnc4)c(C)c3)c2c1 [Example 7, E-(3-{4-[3-Methyl-4-(pyridin-3-yloxy)-phenylamino]-quinazolin-6-yl}-allyl)-carbamic acid methyl ester] | – | – | – |
| < 20 | 437 | Cc1ccc(Oc2ccc(Nc3ncnc4ccc(/C=C/CNC(=O)c5cc(C)on5)cc34)cc2C)cn1 [Example 6, E-5-Methyl-isoxazole-3-carboxylic acid (3-{4-[3-methyl-4-(6-methyl-pyridin-3-yloxy)-phenylamino]-quinazolin-6-yl}-allyl)-amide] | – | – | – |
| < 20 | 101 | CC(=O)C(=O)NCC#Cc1ccc2ncnc(Nc3cnc(Oc4ccccc4)c(C)c3)c2c1 [Example 1, N-{3-[4-(5-Methyl-6-phenoxy-pyridin-3-ylamino)-quinazolin-6-yl]-prop-2-ynyl}-2-oxo-propionamide] | – | – | – |
| < 20 | 182 | Cc1cc(Nc2ncnc3ccc(C#CCNC(=O)CN(C)C)cc23)ccc1Oc1cccnc1 [Example 13, 2-Dimethylamino-N-(3-{4-[3-methyl-4-(pyridin-3-yloxy)-phenylamino]-quinazolin-6-yl}-prop-2-ynyl)-acetamide] | – | – | – |
| – | – | C#Cc1cccc(Nc2ncnc3cc(OCCOC)c(OCCOC)cc23)c1 [CP-358,774] | this adverse event was observed | – | – |
| – | – | O=CN/C=C/c1cc(O)ccc1O [erbstatin] | – | selectively attenuates the growth | without effect on the growth |
| 21 to 50 | 116 | COCC(=O)NC/C=C/c1ccc2ncnc(Nc3ccc(Oc4ccc(C)nc4)c(C)c3)c2c1 [Example 9, E-2-Methoxy-N-(3-{4-[3-methyl-4-(6-methyl-pyridin-3-yloxy)-phenylamino]-quinazolin-6-yl}-allyl)-acetamide] | – | – | – |
| – | – | C=CC(=O)Nc1cc2c(Nc3ccc(F)c(Cl)c3)ncnc2cc1OCCCN1CCOCC1 [CI-1033] | dermal toxicity in the form of a rash occurs | – | – |
| 21 to 50 | 142 | Cc1ccc(Oc2ccc(Nc3ncnc4ccc(/C=C/CNC(=O)C5CC5)cc34)cc2Cl)cn1 [Example 4, E-Cyclopropanecarboxylic acid (3-{4-[3-chloro-4-(6-methyl-pyridin-3-yloxy)-phenylamino]-quinazolin-6-yl}-allyl)-amide] | – | – | – |
| 21 to 50 | 122 | Cc1ccc(Oc2ccc(Nc3ncnc4ccc(/C=C/CNC(=O)C5CC5)cc34)cc2C)cn1 [Example 11, E-Cyclopropanecarboxylic acid (3-{4-[3-methyl-4-(6-methyl-pyridin-3-yloxy)-phenylamino]-quinazolin-6-yl}-allyl)-amide] | – | – | – |
| 21 to 50 | 196 | Cc1cc(Nc2ncnc3ccc(C#CC4CCNCC4)cc23)ccc1Oc1cccnc1 [Example 14, [3-Methyl-4-(pyridin-3-yloxy)-phenyl]-(6-piperidin-4-ylethynyl-quinazolin-4-yl)-amine] | – | – | – |
| 21 to 50 | 658 | Cc1cc(Nc2ncnc3ccc(/C=C/CNC(=O)C4CC4)cc23)ccc1Oc1cccnc1 [Example 2, E-Cyclopropanecarboxylic acid (3-{4-[3-methyl-4-(pyridin-3-yloxy)-phenylamino]-quinazolin-6-yl}-allyl)-amide] | – | – | – |
| 51 to 100 | 140 | COC(=O)NCC#Cc1ccc2ncnc(Nc3ccc(Oc4cccnc4)c(C)c3)c2c1 [Example 15, (3-{4-[3-Methyl-4-(pyridin-3-yloxy)-phenylamino]-quinazolin-6-yl}-prop-2-ynyl)-carbamic acid methyl ester] | – | – | – |
| 21 to 50 | 108 | CC(=O)NC/C=C/c1ccc2ncnc(Nc3ccc(Oc4ccc(C)nc4)c(Cl)c3)c2c1 [Example 5, E-N-(3-{4-[3-Chloro-4-(6-methyl-pyridin-3-yloxy)-phenylamino]-quinazolin-6-yl}-allyl)-acetamide] | – | – | – |
| – | – | COc1cc2ncnc(Nc3ccc(F)c(Cl)c3)c2cc1OCCCN1CCOCC1 [ZD1839] | this adverse event was observed | – | – |
| – | – | CCOc1cc2ncc(C#N)c(Nc3ccc(F)c(Cl)c3)c2cc1NC(=O)/C=C/CN(C)C [EKB-569] | dermal toxicity in the form of a rash occurs | – | – |
| 51 to 100 | 308 | COC1CCN(C(=O)NC(C)(C)C#Cc2ccc3ncnc(Nc4ccc(Oc5ccc(C)nc5)c(C)c4)c3c2)C1 (centres unmarked) [Example 8, 3-Methoxy-pyrrolidine-1-carboxylic acid (1,1-dimethyl-3-{4-[3-methyl-4-(6-methyl-pyridin-3-yloxy)-phenylamino]-quinazolin-6-yl}-prop-2-ynyl)-amide] | – | – | – |
| 21 to 50 | 121 | CCNC(=O)NCC#Cc1ccc2ncnc(Nc3ccc(Oc4cccnc4)c(Cl)c3)c2c1 [Example 12, 1-(3-{4-[3-Chloro-4-(pyridin-3-yloxy)-phenylamino]-quinazolin-6-yl}-prop-2-ynyl)-3-ethyl-urea] | – | – | – |
| 21 to 50 | 103 | COCC(=O)NCC#Cc1ccc2ncnc(Nc3ccc(Oc4cccc(OC)c4)c(C)c3)c2c1 [Example 3, 2-Methoxy-N-(3-{4-[4-(3-methoxy-phenoxy)-3-methyl-phenylamino]-quinazolin-6-yl}-prop-2-ynyl)-acetamide] | – | – | – |
| 21 to 50 | 216 | Cc1ccc(Oc2ccc(Nc3ncnc4ccc(C#CCNC(=O)c5cc(C)no5)cc34)cc2C)cn1 [Example 16, 3-Methyl-isoxazole-5-carboxylic acid (3-{4-[3-methyl-4-(6-methyl-pyridin-3-yloxy)-phenylamino]-quinazolin-6-yl}-prop-2-ynyl)-amide] | – | – | – |
